Experimental findings from patent publication US20110306597A1, “Nicotinamide Derivatives” (priority 2008, published 2011) are described below.

Some results are limits rather than exact numbers.

Usually IC50 stands for the concentration needed to halve the response being measured.

Sequence of human recombinant H-PGDS (O60760 whole entry): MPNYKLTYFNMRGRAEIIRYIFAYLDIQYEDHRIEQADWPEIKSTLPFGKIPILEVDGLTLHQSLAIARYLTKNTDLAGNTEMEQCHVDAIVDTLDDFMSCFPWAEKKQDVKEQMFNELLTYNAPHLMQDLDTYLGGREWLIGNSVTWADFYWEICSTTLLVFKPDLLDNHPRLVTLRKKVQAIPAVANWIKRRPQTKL

This experiment concerns the target human recombinant H-PGDS (Homo sapiens, UniProt O60760). Put plainly: Fluorescence Intensity h-PGDS TBA Enzyme Assay. Type of experiment: biochemical. Conditions: 1:175,000 human recombinant H-PGDS, highest inhibitor concentration typically 1 μM. The method, boiled down:
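Readout is PGH2 depletion: after a 42 s reaction with 5.0 μM PGH2 and 2.5 mM glutathione (pH 8.0 Tris, 10 min inhibitor preincubation), Fe(II) converts leftover PGH2 to MDA, which forms a fluorescent TBA complex. IC50s come from 11-point, 3-fold duplicate curves, 4-parameter fit.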
With `O=C(NCc1ccc[nH]c1=O)c1ccc(-c2cccc(F)c2)nc1` [Example 13, 6-(3-Fluorophenyl)-N-[(2-oxo-1,2-dihydropyridin-3-yl)methyl]nicotinamide], the IC50 came out at 20.4 nM. Take `CCOC(=O)CCCNC(=O)c1ccc(-c2ccccc2)nc1` [Example 386, Ethyl 4-{[(6-phenylpyridin-3-yl)carbonyl]amino}butanoate]: the IC50 was determined as 23.2 nM. With `CN(C)C(=O)N1[C@@H]2CC[C@H]1C[C@H](NC(=O)c1ccc(-c3cccc(F)c3)nc1)C2` [Example 595, (3-exo)-3-({[6-(3-Fluorophenyl)-pyridin-3-yl]carbonyl}amino)-N,N-dimethyl-8-azabicyclo[3.2.1]octane-8-carboxamide], the IC50 amounted to 3 nM. With `Cc1nc(CNC(=O)c2ccc(-c3cccc(F)c3)nc2)cs1` [Example 69, 6-(3-Fluorophenyl)-N-[(2-methyl-1,3-thiazol-4-yl)methyl]nicotinamide] the figure was 23.9 nM. For `CN1CCC(CCNC(=O)c2ccc(-c3ccccc3)nc2)CC1` [Example 388, N-[2-(1-Methylpiperidin-4-yl)ethyl]-6-phenylnicotinamide] the value was 15.7 nM. For `COc1cccc(-c2ccc(C(=O)NCc3ccc(-n4cncn4)cc3)cn2)c1` [Example 291, 6-(3-Methoxyphenyl)-N-[4-(1H-1,2,4-triazol-1-yl)benzyl]nicotinamide] the value was 203 nM; for `O=C(NCc1nc2ccccc2s1)c1cnc(-c2cccc(F)c2)c(Cl)c1` [Example 546, N-(1,3-Benzothiazol-2-ylmethyl)-5-chloro-6-(3-fluorophenyl)nicotinamide], 59.6 nM. Take `CCOC(=O)CC[C@@H](NC(=O)c1ccc(-c2cccc(F)c2)nc1)C(=O)OCC` [Example 166, Diethyl N-{[6-(3-fluorophenyl)pyridin-3-yl]carbonyl}-D-glutamate]: the IC50 came out at 2.57 nM. With `COc1cccc(-c2ccc(C(=O)NC3CCN(Cc4ccc(C)cc4)C3=O)cn2)c1` (centres unmarked) [Example 274, 6-(3-Methoxyphenyl)-N-[1-(4-methylbenzyl)-2-oxopyrrolidin-3-yl]nicotinamide] the figure was 106 nM. For `O=C(NCCN1CCCC(O)C1)c1ccc(-c2cccc(F)c2)nc1` (centres unmarked) [Example 47, 6-(3-Fluorophenyl)-N-[2-(3-hydroxypiperidin-1-yl)ethyl]nicotinamide] the value was 21.7 nM; for `CN1CCC(CNC(=O)c2ccc(-c3cccc(F)c3)nc2)CC1` [Example 113, 6-(3-Fluorophenyl)-N-[(1-methylpiperidin-4-yl)methyl]nicotinamide], 149 nM.

Take `Cc1cccc(-c2ccc(C(=O)Nc3cccnc3)cn2)c1` [Example 488, 6-(3-Methylphenyl)-N-pyridin-3-ylnicotinamide]: the half-inhibitory concentration (IC50) worked out at 11.4 nM.

On to `O=C(NCC1CCCN(c2ccccn2)C1)c1ccc(-c2cccc(F)c2)nc1` (centres unmarked) [Example 14, 6-(3-Fluorophenyl)-N-[(1-pyridin-2-ylpiperidin-3-yl)methyl]nicotinamide], for which the 50% inhibitory concentration (IC50) came out at 9.18 nM.

Consider `Cc1nccn1CCNC(=O)c1ccc(-c2cccc(F)c2)nc1` [Example 119, 6-(3-Fluorophenyl)-N-[2-(2-methyl-1H-imidazol-1-yl)ethyl]nicotinamide], for which the IC50 was 59.8 nM. Take `CN1CCc2nc(N3CCC(NC(=O)c4ccc(-c5cccc(F)c5)nc4)C3)ncc2C1` (centres unmarked) [Example 90, 6-(3-Fluorophenyl)-N-[1-(6-methyl-5,6,7,8-tetrahydropyrido[4,3-d]pyrimidin-2-yl)pyrrolidin-3-yl]nicotinamide]: the IC50 amounted to 0.852 nM. On to `O=C(NC(CN1CCOCC1)c1ccccc1)c1ccc(-c2cccc(F)c2)nc1` (centres unmarked) [Example 210, 6-(3-Fluorophenyl)-N-(2-morpholin-4-yl-1-phenylethyl)nicotinamide], for which the 50% inhibitory concentration (IC50) stood at 39.2 nM. For `COc1ccc(NC(=O)c2ccc(-c3ccccc3)nc2)cc1OC` [Example 515, N-(3,4-Dimethoxyphenyl)-6-phenylnicotinamide], the half-maximal inhibitory concentration (IC50) was determined as 0.95 nM. On to `O=C(NCCNc1ncccn1)c1ccc(-c2cccc(F)c2)nc1` [Example 64, 6-(3-Fluorophenyl)-N-[2-(pyrimidin-2-ylamino)ethyl]nicotinamide], for which the half-maximal inhibitory concentration (IC50) was 12.9 nM. Take `COc1cccc(-c2ccc(C(=O)NCc3ccco3)cn2)c1` [Example 288, N-(2-Furylmethyl)-6-(3-methoxyphenyl)nicotinamide]: the 50% inhibitory concentration (IC50) came to 333 nM.

Consider `CCOC(=O)C1(NC(=O)c2ccc(-c3cccc(C)c3)nc2)CCOCC1` [Example 220, Ethyl 4-({[6-(3-methylphenyl)pyridin-3-yl]carbonyl}amino)tetrahydro-2H-pyran-4-carboxylate], for which the half-inhibitory concentration (IC50) came to 93.4 nM. For `O=C(NCc1ccco1)c1ccc(-c2ccccc2)nc1` [Example 379, N-(2-Furylmethyl)-6-phenylnicotinamide] the value was 4.79 nM; for `CN(C)CC(C)(C)CNC(=O)c1ccc(-c2cccc(F)c2)nc1` [Example 168, N-[3-(Dimethylamino)-2,2-dimethylpropyl]-6-(3-fluorophenyl)nicotinamide], 175 nM. For `COC(=O)c1ccc(CNC(=O)c2ccc(-c3cccc(OC)c3)nc2)cc1` [Example 344, Methyl 4-[({[6-(3-methoxyphenyl)pyridin-3-yl]carbonyl}amino)methyl] benzoate] the value was 159 nM. Regarding `CCOCCCNC(=O)c1ccc(-c2cccc(F)c2)nc1` [Example 38, N-(3-Ethoxypropyl)-6-(3-fluorophenyl)nicotinamide], the IC50 stood at 14.8 nM.

Take `O=C(NCc1ccc(C(F)(F)F)cc1)c1ccc(-c2ccc(F)cc2)nc1` [Example 267, 6-(4-Fluorophenyl)-N-[4-(trifluoromethyl)benzyl] nicotinamide]: the IC50 was at least 1000 nM. With `Cc1cccc(-c2ccc(C(=O)NCCc3nc(C)no3)cn2)c1` [Example 233, N-[2-(3-Methyl-1,2,4-oxadiazol-5-yl)ethyl]-6-(3-methylphenyl)nicotinamide] the figure was 85.5 nM. For `CC(=O)N1CCC(CNC(=O)c2ccc(-c3ccc(F)cc3)nc2)CC1` [Example 257, N-[(1-Acetylpiperidin-4-yl)methyl]-6-(4-fluorophenyl)nicotinamide] the value was 777 nM; for `O=C(NCCCCNC(=O)c1ccc(-c2cccc(F)c2)nc1)OCc1ccccc1` [Example 214, Benzyl [4-({[6-(3-fluorophenyl)pyridin-3-yl]carbonyl}amino)butyl] carbamate], 20.7 nM. For `Cc1cccc(-c2ccc(C(=O)NCc3ccc(S(N)(=O)=O)cc3)cn2)c1` [Example 449, N-[4-(Aminosulfonyl)benzyl]-6-(3-methylphenyl)nicotinamide] the value was 25.9 nM; for `COc1cccc(-c2ccc(C(=O)Nc3ccncc3)cn2)c1` [Example 336, 6-(3-Methoxyphenyl)-N-pyridin-4-ylnicotinamide], 87.3 nM. `O=C(CNC(=O)c1ccc(-c2ccccc2)nc1)OCc1ccccc1` [Example 367, Benzyl N-[(6-phenylpyridin-3-yl)carbonyl]glycinate]: the concentration for half-maximal inhibition (IC50) came out at 6.6 nM. For `COc1cccc(-c2ccc(C(=O)NCCN3CCCCC3)cn2)c1` [Example 511, 6-(3-methoxyphenyl)-N-(2-piperidin-1-ylethyl)nicotinamide] the value was at least 1000 nM; for `Cc1cccc(-c2ccc(C(=O)NCc3ccc(C(F)(F)F)cc3)cn2)c1` [Example 454, 6-(3-Methylphenyl)-N-[4-(trifluoromethyl)benzyl] nicotinamide], 149 nM. With `O=C(NC1C(=O)NCCc2ccccc21)c1ccc(-c2cccc(F)c2)nc1` (centres unmarked) [Example 120, 6-(3-Fluorophenyl)-N-(2-oxo-2,3,4,5-tetrahydro-1H-3-benzazepin-1-yl)nicotinamide] the figure was 67.3 nM; with `CC(O)CNC(=O)c1ccc(-c2ccc(F)cc2)nc1` (centres unmarked) [Example 262, 6-(4-Fluorophenyl)-N-(2-hydroxypropyl)nicotinamide], 992 nM.

For `COc1ccc2nc(CCNC(=O)c3ccc(-c4cccc(F)c4)nc3)[nH]c2c1` [Example 208, 6-(3-Fluorophenyl)-N-[2-(6-methoxy-1H-benzimidazol-2-yl)ethyl]nicotinamide], the IC50 is 18.3 nM. For `O=C(NCc1ccc(C(F)(F)F)cc1)c1ccc(-c2cccc(F)c2)nc1` [Example 409, 6-(3-Fluorophenyl)-N-[4-(trifluoromethyl)benzyl] nicotinamide] the value was 233 nM; for `O=C(NCC(O)c1ccccc1F)c1ccc(-c2cccc(F)c2)nc1` (centres unmarked) [Example 79, 6-(3-Fluorophenyl)-N-[2-(2-fluorophenyl)-2-hydroxyethyl]nicotinamide], 10.3 nM; for `O=C(NCCc1cccs1)c1ccc(-c2ccccc2)nc1` [Example 363, 6-Phenyl-N-[2-(2-thienyl)ethyl]nicotinamide], 5.1 nM. For `COC(=O)[C@H](C)NC(=O)c1ccc(-c2cccc(F)c2)nc1` [Example 174, Methyl N-{[6-(3-fluorophenyl)pyridin-3-yl]carbonyl}alaninate] the value was 601 nM; for `CCOC(=O)C(C)(C)NC(=O)c1ccc(-c2cccc(F)c2)nc1` [Example 145, Ethyl N-{[6-(3-fluorophenyl)pyridin-3-yl]carbonyl}-2-methylalaninate], 223 nM; for `Cc1cccc(-c2ccc(C(=O)NCc3cc(F)cc4c3OCOC4)cn2)c1` [Example 312, N-[(6-Fluoro-4H-1,3-benzodioxin-8-yl)methyl]-6-(3-methylphenyl)nicotinamide], 19.9 nM.

For the molecule `O=C(NCCNc1ccccc1)c1ccc(-c2ccc(F)cc2)nc1` [Example 508, N-(2-Anilinoethyl)-6-(4-fluorophenyl)nicotinamide], the concentration for half-maximal inhibition (IC50) came out at 412 nM. Consider `O=C(NCC(c1ccccc1Cl)N1CCOCC1)c1ccc(-c2cccc(F)c2)nc1` (centres unmarked) [Example 445, N-[2-(2-Chlorophenyl)-2-morpholin-4-ylethyl]-6-(3-fluorophenyl)nicotinamide], for which the IC50 was 589 nM.
